Assay results taken from patent publication US5283254A, “2-(imidazol-1-yl)-2-benzylethyldiene-aminoxyalkanoic acid derivatives” (Farmitalia Carlo Erba S.r.l., priority 1991, dated 1994).

Tests used:
[1] = biological target: T1, TxA2 receptor (Homo sapiens, UniProt P21731); experiment: [3H]-SQ 29,548 binding displacement in washed human platelets (TxA2 antagonism)
T1 construct: endogenous in cells; host or cells: washed human platelets from healthy volunteers
T1 sequence (P21731 1-343): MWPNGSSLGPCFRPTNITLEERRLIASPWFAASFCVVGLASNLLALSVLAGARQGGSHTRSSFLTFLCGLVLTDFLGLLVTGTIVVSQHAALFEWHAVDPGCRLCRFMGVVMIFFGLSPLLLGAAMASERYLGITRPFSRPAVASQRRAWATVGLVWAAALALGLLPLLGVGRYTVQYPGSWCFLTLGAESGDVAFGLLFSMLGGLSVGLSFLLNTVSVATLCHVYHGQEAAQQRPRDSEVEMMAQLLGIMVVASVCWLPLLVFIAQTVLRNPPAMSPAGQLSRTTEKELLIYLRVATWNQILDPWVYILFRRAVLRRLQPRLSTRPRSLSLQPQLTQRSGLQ
Protocol: Platelet rich plasma (PRP), obtained by centrifugation of the blood at 200×g for 20 min, is washed twice (1000×g for 10 min). […] For displacement experiments various concentrations (10^-9 -10^-4 M) of competing ligands were added and incubated for 30 min at 25° C.
The binding data were analysed by computerized non-linear curve fitting using the Ligand program and expressed as IC50.

[2] = biological target: T2, TxA2 Synthase (Rattus norvegicus, UniProt P49430); experiment: Inhibition of TxA2 synthase activity: TxB2 production in rat whole blood during clotting (serum, RIA), in vitro; format: cell-based; conditions: for inhibitory activity on TxA2 synthesis (in words): rat
T2 construct: TxB2 generated in whole blood during clotting; endogenous in cells; host or cells: rat whole blood (blood cells, mainly platelets), clotted 1 h at 37 °C
T2 sequence (P49430 1-533): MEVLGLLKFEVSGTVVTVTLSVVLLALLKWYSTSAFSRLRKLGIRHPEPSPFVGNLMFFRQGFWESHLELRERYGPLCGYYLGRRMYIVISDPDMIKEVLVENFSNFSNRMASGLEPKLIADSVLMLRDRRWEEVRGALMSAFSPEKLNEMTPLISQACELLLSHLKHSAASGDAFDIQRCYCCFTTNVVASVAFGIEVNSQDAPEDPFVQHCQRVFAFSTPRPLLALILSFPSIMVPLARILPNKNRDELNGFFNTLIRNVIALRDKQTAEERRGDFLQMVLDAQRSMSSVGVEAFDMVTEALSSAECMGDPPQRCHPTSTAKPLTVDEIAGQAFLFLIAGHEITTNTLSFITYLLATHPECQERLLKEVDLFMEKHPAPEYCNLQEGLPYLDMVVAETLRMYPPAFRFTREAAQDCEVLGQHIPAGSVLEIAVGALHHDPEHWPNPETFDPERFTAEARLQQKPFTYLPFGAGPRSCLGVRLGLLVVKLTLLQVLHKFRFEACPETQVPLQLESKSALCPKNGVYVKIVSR
Protocol: The compounds of formula (I) were for example tested for their ability to inhibit TxA2 Synthase activity (as reflected by TxB2 generated in whole blood during clotting or in isolated glomeruli) in vitro in the rat.
The in vitro experiments were carried out as follows:
The effect of the compounds on TxA2 synthesis was evaluated in serum.
Blood was withdrawn from the abdominal aorta of the animals under light ether anesthesia.
Samples were then allowed to clot for 1 h at 37° C., centrifuged at 3000 rpm for 10 min, serum collected and stored at -20° C. until assayed. TxB2 levels were determined by RIA according to previously described procedures [Patrono et al.--Thromb. Res. 17, 3/4, 317, 1980] using highly specific antibody.

[3] = test system: TxA2 synthase; conditions: known compound; cited from earlier work

| SMILES | affinity for the receptor / TxA2 antagonism (in words) [1] | IC50 ([1]; 5 nM [3H]-SQ 29,548, 30 min at 25° C., pH 7.4) [nM] | inhibitory activity on TxA2 synthesis (in words) [2] | IC50 ([2]; rat whole blood, n = 8 replicates, limits for p = 0.95 printed on following line, clotting 1 h at 37° C.) [nM] | inhibitory activity on TxA2 synthesis (in words) ([2]; listed as FCE 27109) | TxA2 synthase inhibitory activity (in words) [3] |
| --- | --- | --- | --- | --- | --- | --- |
| O=C(O)CCCCO/N=C(\c1ccccc1)C(Cc1ccc(F)cc1)n1ccnc1 (racemic) [FCE 27317, (±)-(E)-5-[1-phenyl-2-(imidazol-1-yl)-2-(4-fluorobenzyl)ethylidene]aminoxypentanoic acid] | good affinity for the receptor better than that showed by the known compound Sulotroban (BM 13177) | 38.7 | marked inhibitory activity on TxA2 synthesis significantly more potent than that of reference compounds Dazoxiben and ASA | 390 | active as TxA2 synthase inhibitor | – |
| O=C(O)COc1ccc(CCNS(=O)(=O)c2ccccc2)cc1 [BM 13177] | – | – | – | – | – | devoid of TxA2 synthase inhibitory activity |
